# Assays:
# [1] = test system: Transmissible Gastro-enteritis virus; type: cell-based; settings: tissue-culture test
# rumen flora = test: In vitro rumen fluid incubation, volatile fatty acid production; set-up: species or system steer; settings: 1 ppm in rumen fluid, 16 hours at 38° C
# Description: As discussed hereinabove, efficiency of carbohydrate utilization in ruminants is increased by treatments which stimulate the animal's rumen flora to produce propionate compounds rather than acetate or butyrate compounds. The efficiency of feed use can be monitored by observing the production and concentration of propionate compounds in the rumen, using the following methods:
# Rumen fluid is obtained from a steer with a surgically-installed fistula opening into the rumen. The steer is maintained on a high-grain ration. A sample of rumen fluid is strained through four layers of cheesecloth, and the filtrate is collected. The particulate matter retained by the cheesecloth is resuspended in enough physiological buffer to return it to the original volume of the rumen fluid, and this suspension is strained again. The buffer used has the following composition:
# The two filtrates are combined and allowed to stand until particulate matter separates to the top. The clear layer is separated, diluted with the same buffer (1:1) and then adjusted to between pH 6.8 to 7.0.
# The diluted rumen fluid (10 ml) is placed in a 25-ml flask with 40 mg of the above-described feed, an additional 1 mg of soybean protein, and the compound to be tested. Four replicate flasks are used per treatment. Two sets of four control flasks each are also employed. A zero-time control and an incubated 16-hour control are used. All test flasks are incubated for 16 hours at 38° C. […] The samples are allowed to settle, and the supernatants are analyzed by gas chromatography for propionate, acetate, and butyrate compounds.
# [2] = test system: Bacillus subtilis ATCC6633; test: Disc-diffusion zone of inhibition, Bacillus subtilis ATCC6633; type: cell-based; settings: 6 mm pads, 1 mg/ml
# Candida tropicalis = test: Disc-diffusion zone of inhibition, Candida tropicalis; type: cell-based; settings: 6 mm pads, 1 mg/ml
# sheep = test: Feed-utilization efficiency in sheep; type: in vivo; settings: 56 days
# [3] = Electrometric titration (pKa of titratable group); settings: 80% aqueous dimethylformamide
# [4] = test system: Saccharomyces pastorianum ATCC2366; test: Disc-diffusion zone of inhibition, Saccharomyces pastorianum ATCC2366; type: cell-based
# [5] = Acute toxicity in mice, intraperitoneal; settings: mouse, in vivo, ip
# Clostridium perfringens = test: microbe, parasite or virus in culture; type: cell-based; settings: 24 h
# Eimeria brunetti = test: Anticoccidial activity in chicks challenged with Eimeria brunetti (Table IX); type: in vivo, broiler cockerels; settings: 0.005 % in feed
# Description: ^1 Four replicates, 5 broiler cockerels each
# Clostridium inocuum = test: Agar-dilution MIC, anaerobic bacteria; type: cell-based; settings: 24-hour incubation
# Description: (§1) The minimal inhibitory concentrations (MIC) at which A-28086 factor A inhibits various anaerobic bacteria, determined by standard agar-dilution assay, are summarized in Table VI. Endpoints were read after 24-hour incubation.
# Fusobacterium symbiosum = test: Agar-dilution MIC, anaerobic bacteria; type: cell-based; settings: 24-hour incubation
# Description: as §1
# Clostridium ramosum = test: Agar-dilution MIC, anaerobic bacteria; type: cell-based; settings: Thomasclavelia ramosa, 24-hour incubation
# Description: as §1
# Peptococcus anaerobius = test: Agar-dilution MIC, anaerobic bacteria; type: cell-based; settings: 24-hour incubation
# Description: as §1
# Actinomyces bovis = test: Agar-dilution MIC, anaerobic bacteria; type: cell-based; settings: 24-hour incubation
# Description: as §1
# [6] = test system: Bacteroides fragilis ssp. fragilis; test: Agar-dilution MIC, anaerobic bacteria; type: cell-based; settings: 24-hour incubation
# Description: as §1
# [7] = test system: Bacteroides fragilis ssp. vulgatis No. 1563; test: Agar-dilution MIC, anaerobic bacteria; type: cell-based; settings: 24-hour incubation
# Description: as §1
# [8] = test system: Bacteroides fragilis ssp. vulgatis 1211; test: Agar-dilution MIC, anaerobic bacteria; type: cell-based; settings: 24-hour incubation
# Description: as §1
# Clostridium septicum = test: Agar-dilution MIC, anaerobic bacteria; type: cell-based; settings: 24-hour incubation
# Description: as §1
# Eubacterium aerofaciens = test: Agar-dilution MIC, anaerobic bacteria; type: cell-based; settings: Collinsella aerofaciens, 24-hour incubation
# Description: as §1
# [9] = test system: Clostridium septicum bovine; test: Agar-dilution MIC, anaerobic bacteria; type: cell-based; settings: 24-hour incubation
# Description: as §1
# [10] = test system: Propionibacterium acnes 44; test: Agar-dilution MIC, anaerobic bacteria; type: cell-based; settings: Cutibacterium acnes, 24-hour incubation
# Description: as §1
# [11] = test system: Bacteroides fragilis ssp. thetaiotacmicron; test: Agar-dilution MIC, anaerobic bacteria; type: cell-based; settings: 24 h
# Description: as §1
# [12] = test system: Peptostreptococcus intermedius; test: Agar-dilution MIC, anaerobic bacteria; type: cell-based; settings: 24-hour incubation
# Description: as §1
# Veillonella alcalescens = test: Agar-dilution MIC, anaerobic bacteria; type: cell-based; settings: Veillonella parvula, 24-hour incubation
# Description: as §1
# [13] = test system: Fusobacterium necrophorum; test: Agar-dilution MIC, anaerobic bacteria; type: cell-based; settings: 24-hour incubation
# Description: as §1
# [14] = test system: Propionibacterium acnes 79; test: Agar-dilution MIC, anaerobic bacteria; type: cell-based; settings: Cutibacterium acnes, 24-hour incubation
# Description: as §1
# Fusarium moniliforme = test: Disc-diffusion zone of inhibition, Fusarium moniliforme; type: cell-based; settings: Fusarium verticillioides; 6 mm pads, 1 mg/ml
# [15] = Solubility in organic solvents and water; type: physicochemical
# M. hypopneumoniae = test: In vitro broth-dilution MIC, Mycoplasma; type: cell-based, Mycoplasma hypopneumoniae
# Description: (§2) Activity against Mycoplasma is another useful aspect of the antimicrobial activity of the A-28086 compounds. Mycoplasma species, also known as pleuropneumonia-like (PPLO) organisms, are pathogenic to man and various animals. Agents active against PPLO organisms are especially needed by the poultry industry. The minimal inhibitory concentrations (MIC) of antibiotic A-28086 factor A against various Mycoplasma species, as determined by in vitro broth-dilution studies, are summarized in Table VII below: […]
# Staphylococcus aureus = test: Disc-diffusion zone of inhibition, Staphylococcus aureus; type: cell-based; settings: 6 mm pads, 1 mg/ml
# [16] = test system: Mycobacterium avium ATCC7992; test: Disc-diffusion zone of inhibition, Mycobacterium avium ATCC7992; type: cell-based; settings: 6 mm pads, 1 mg/ml
# Sarcina lutea ATCC9341 = test: Disc-diffusion zone of inhibition, Sarcina lutea ATCC9341; type: cell-based; settings: Micrococcus luteus, 6 mm pads, 1 mg/ml
# M. hyorhinis = test: In vitro broth-dilution MIC, Mycoplasma; type: cell-based; settings: Mesomycoplasma hyorhinis
# Description: as §2
# M. gallisepticum = test: In vitro broth-dilution MIC, Mycoplasma; type: cell-based; settings: Mycoplasmoides gallisepticum
# Description: as §2
# M. synoviae = test: In vitro broth-dilution MIC, Mycoplasma; type: cell-based; settings: Mycoplasmopsis synoviae
# Description: as §2
# M. hyosynoviae = test: In vitro broth-dilution MIC, Mycoplasma; type: cell-based, Mycoplasma hyosynoviae
# Description: as §2
# [17] = Microbiological activity of A-28086-I
smiles,measurement,setting,value
CCC(C(=O)O)C1OC(C(C)C(O)C(C)C(=O)C(CC)C2OC3(C=CC(O)C4(CCC(C)(C5CCC(O)(CC)C(C)O5)O4)O3)C(C)CC2C)C(C)CC1C (centres unmarked) [A-28086 factor A],antiviral activity,[1],active
same,"Ratio of Treated to Control, Molar % acetate",rumen flora,0.94
same,"Ratio of Treated to Control, Molar % butyrate",rumen flora,0.87
same,"Ratio of Treated to Control, Total VFA mM/1",rumen flora,1.26
same,zone of inhibition at 1000 µg/mL,[2],28 mm
same,zone of inhibition at 1000 µg/mL,Candida tropicalis,14 mm
same,Percent Improvement,sheep; 9 g per ton of feed,12%
same,Percent Improvement,sheep; 18 g per ton of feed,1%
same,pKa,[3],7.9
same,zone of inhibition at 1000 µg/mL,[4],17 mm
same,LD50,[5],7.15 mg/kg
same,MIC,Clostridium perfringens,< 0.5 mg/L
same,Average Lesion Score,Eimeria brunetti,1.2
same,Oocysts Passed Percent Reduction,Eimeria brunetti,58%
same,Percent Mortality,Eimeria brunetti,0%
same,Percent Weight Gain,Eimeria brunetti,88%
same,MIC,Clostridium inocuum,< 0.5 mg/L
same,MIC,Fusobacterium symbiosum,< 0.5 mg/L
same,MIC,Clostridium ramosum,4 mg/L
same,MIC,Peptococcus anaerobius,< 0.5 mg/L
same,MIC,Actinomyces bovis,< 0.5 mg/L
same,MIC,[6],8 mg/L
same,MIC,[7],8 mg/L
same,MIC,[8],2 mg/L
same,MIC,Clostridium septicum,< 0.5 mg/L
same,MIC,Eubacterium aerofaciens,1 mg/L
same,MIC,[9],< 0.5 mg/L
same,MIC,[10],16 mg/L
same,MIC,[11],8 mg/L
same,MIC,[12],16 mg/L
same,MIC,Veillonella alcalescens,16 mg/L
same,MIC,[13],8 mg/L
same,MIC,[14],2 mg/L
same,zone of inhibition at 1000 µg/mL,Fusarium moniliforme,12 mm
same,solubility in organic solvents,"[15]; methanol, ethanol, dimethylformamide, dimethyl sulfoxide, ethyl acetate, chloroform, acetone, benzene",soluble
same,solubility in nonpolar organic solvents,[15]; such as hexane,only slightly soluble
same,solubility in water,[15]; water,insoluble
same,MIC,M. hypopneumoniae,6.25 mg/L
same,zone of inhibition at 1000 µg/mL,Staphylococcus aureus,19 mm
same,zone of inhibition at 1000 µg/mL,[16],12 mm
same,zone of inhibition at 1000 µg/mL,Sarcina lutea ATCC9341,26 mm
same,MIC,M. hyorhinis,12.5 mg/L
same,MIC,M. gallisepticum,12.5 mg/L
same,MIC,M. synoviae,6.25 mg/L
same,MIC,M. hyosynoviae,6.25 mg/L
CCCCC(=O)OC1C=CC2(OC(C(CC)C(=O)C(C)C(O)C(C)C3OC(C(CC)C(=O)O)C(C)CC3C)C(C)CC2C)OC12CCC(C)(C1CCC(O)(CC)C(C)O1)O2 (centres unmarked),"Ratio of Treated to Control, Molar % acetate",rumen flora,0.92
same,"Ratio of Treated to Control, Molar % butyrate",rumen flora,0.79
same,"Ratio of Treated to Control, Total VFA mM/1",rumen flora,1.18
CCC(=O)OC1C=CC2(OC(C(CC)C(=O)C(C)C(O)C(C)C3OC(C(CC)C(=O)O)C(C)CC3C)C(C)CC2C)OC12CCC(C)(C1CCC(O)(CC)C(C)O1)O2 (centres unmarked),"Ratio of Treated to Control, Molar % acetate",rumen flora,0.90
same,"Ratio of Treated to Control, Molar % butyrate",rumen flora,0.68
same,"Ratio of Treated to Control, Total VFA mM/1",rumen flora,1.25
CCCCCC(=O)OC1C=CC2(OC(C(CC)C(=O)C(C)C(O)C(C)C3OC(C(CC)C(=O)O)C(C)CC3C)C(C)CC2C)OC12CCC(C)(C1CCC(O)(CC)C(C)O1)O2 (centres unmarked),"Ratio of Treated to Control, Molar % acetate",rumen flora,0.86
same,"Ratio of Treated to Control, Molar % butyrate",rumen flora,0.97
same,"Ratio of Treated to Control, Total VFA mM/1",rumen flora,0.99
CCC(C(=O)OC)C1OC(C(C)C(O)C(C)C(=O)C(CC)C2OC3(C=CC(O)C4(CCC(C)(C5CCC(O)(CC)C(C)O5)O4)O3)C(C)CC2C)C(C)CC1C (centres unmarked) [A-28086-I],microbiological activity,[17],not microbiologically active
CCC(C(=O)O)C1OC(C(C)C(O)C(C)C(=O)C(CC)C2OC3(C=CC(OC(C)=O)C4(CCC(C)(C5CCC(O)(CC)C(C)O5)O4)O3)C(C)CC2C)C(C)CC1C (centres unmarked) [A-28086 factor A acetyl ester derivative],"Ratio of Treated to Control, Molar % acetate",rumen flora,0.79
same,"Ratio of Treated to Control, Molar % butyrate",rumen flora,0.76
same,"Ratio of Treated to Control, Total VFA mM/1",rumen flora,1.04
same,pKa,[3],8.5
CCCC(=O)OC1C=CC2(OC(C(CC)C(=O)C(C)C(O)C(C)C3OC(C(CC)C(=O)O)C(C)CC3C)C(C)CC2C)OC12CCC(C)(C1CCC(O)(CC)C(C)O1)O2 (centres unmarked),"Ratio of Treated to Control, Molar % acetate",rumen flora,0.91
same,"Ratio of Treated to Control, Molar % butyrate",rumen flora,0.81
same,"Ratio of Treated to Control, Total VFA mM/1",rumen flora,1.19
